Values joined by “and” are separate entries in the source; they are usually repeats but may differ in a detail not shown here. Identical values can stand only once. Like-named read-outs stand apart in the source and are kept apart here.
Experiments:
[1] = tested on: VEGFA, ANG1/2, EGF, PECAM1/CD31; assay: Serum angiogenic markers overall, before vs after ITPP; assay type: in vivo, human
Experimental: Serum angiogenesis markers were quantified by multiplex bead-based immunoassays following provided instructions (LEGENDplex™, Biolegend, San Diego, CA/USA). For biochemical markers, the percentage change comparing before (day 1 0 h) with after (last day 9 h) ITPP treatment was calculated.

[2] = tested on: target lesions of PDAC, CRLM, CCA and HCC; assay: Morphological radiological response, MRI, RECIST 1.1; assay type: in vivo, human; parameters: key to RECIST1.1 response after ITPP / RECIST1.1 response after chemotherapy / RespITPP_Recist / RespChemo_Recist: CR = complete response; PR = partial response; SD = stable disease; PD = progressive disease; Lesion1_pre_DM / Lesion1_post_DM / Lesion1_chemo_DM / Lesion2_pre_DM / Lesion2_post_DM / Lesion2_chemo_DM / Lesion3_pre_DM / Lesion3_post_DM / Lesion3_chemo_DM / Lesion4_pre_DM / Lesion4_post_DM / Lesion4_chemo_DM / Lesion5_pre_DM / Lesion5_post_DM / Lesion5_chemo_DM: unit not given here; conditions: for RECIST1.1 response after chemotherapy: chemotherapy subsequent to ITPP; for RespITPP_Recist / RespChemo_Recist: RECIST
Experimental: Radiological assessment, consisting of abdominal MRI and FDG-PET-CT, was performed before ITPP administration and after the 3-week treatment course. Where possible, radiological re-evaluation was performed after 3–6 cycles of chemotherapy. Radiological responses were evaluated according to the RECIST 1.1 criteria[56] for MRI and EORTC criteria[57] for FDG-PET-CT imaging.
Then first calculate the sum of diameters (DM) and SUV-activities of radiological target lesions before ITPP (sum_pre), after ITPP (sum_post) and after subsequent chemotherapy (sum_chemo) for assessment of morphological RECIST1.1 (diameter) and metabolical EORTC (SUV activiy) responses.
Patient 1 (dropout after only 2 infusions and subsequent death due to rapid oncological progression) is excluded for radiological assessment due to no follow up imaging available.
In a second step, we calculate percent changes (PC) of diameter and SUV activity between before ITPP, after ITPP and after chemotherapy.

hepatocellular carcinoma = tested on: hepatocellular carcinoma; parameters: method as in ref 10 (supplementary references); conditions: syngeneic, orthotopic rat model of hepatocellular carcinoma; ref 10 (supplementary references); cited from earlier work
[3] = tested on: colorectal liver metastasis; conditions: cited from earlier work; for Survival: ref 16 (supplementary references)
[4] = after ITPP monotherapy, 27 patients assessed
[5] = after chemotherapy subsequent to ITPP, 20 patients

O=P1(O)OC2C3OP(=O)(O)OP(=O)(O)OC3C3OP(=O)(O)OP(=O)(O)OC3C2OP(=O)(O)O1 (centres unmarked) [ITPP, Myo-inositol trispyrophosphate]
Share of patients with decreases in angiogenic markers [1]: ~60%
Median change in target lesion size, RECIST ([2]; CCA, after ITPP): 0.88%
Median change in target lesion size, RECIST ([2]; CCA, after chemotherapy): −18.18%
Median change in target lesion size, RECIST ([2]; CRLM, after ITPP): 6.67%
Median change in target lesion size, RECIST ([2]; CRLM, after chemotherapy): −3.12%
Median change in target lesion size, RECIST ([2]; HCC, after ITPP): 0.81%
Median change in target lesion size, RECIST ([2]; HCC, after chemotherapy): −30.46%
Share of patients with SD (morphological disease stabilization) ([2]; ITPP monotherapy): 52%
Median change in target lesion size, RECIST ([2]; PDAC, after ITPP): 12.16%
Median change in target lesion size, RECIST ([2]; PDAC, after chemotherapy): 0%
Patients with progression (PD), RECIST1.1 [2, 4]: 11
Patients with stable disease (SD), RECIST1.1 [2, 4]: 14
Patients with PD, RECIST [2, 5]: 6
Patients with SD, RECIST [2, 5]: 12
Patients with partial response (PR), RECIST [2, 5]: 2
Share of patients with PR ([2]; after subsequent chemotherapy): 10%
Share of patients with SD ([2]; after subsequent chemotherapy): 60%
RECIST1.1 response after ITPP ([2]; individual patients, cohort 1 (1866 mg/m2)): PD and SD
RECIST1.1 response after chemotherapy ([2]; individual patients, cohort 1, 1866 mg/m2): SD
RECIST1.1 response after ITPP ([2]; individual patients, cohort 2 (3732 mg/m2)): SD and PD
RECIST1.1 response after chemotherapy ([2]; individual patients, cohort 2, 3732 mg/m2): SD
RECIST1.1 response after ITPP ([2]; individual patients, cohort 3 (5600 mg/m2)): PD and SD
RECIST1.1 response after chemotherapy ([2]; individual patients, cohort 3, 5600 mg/m2): PD and SD
RECIST1.1 response after ITPP ([2]; individual patients, cohort 4 (7000 mg/m2)): PD and SD
RECIST1.1 response after chemotherapy ([2]; individual patients, cohort 4, 7000 mg/m2): PR
RECIST1.1 response after ITPP ([2]; individual patients, cohort 5 (8750 mg/m2)): SD and PD
RECIST1.1 response after chemotherapy ([2]; individual patients, cohort 5, 8750 mg/m2): PD
RECIST1.1 response after ITPP ([2]; individual patients, cohort 6 (10500 mg/m2)): PD and SD
RECIST1.1 response after chemotherapy ([2]; individual patients, cohort 6, 10500 mg/m2): PD and PR and SD
RECIST1.1 response after ITPP ([2]; individual patients, cohort 7 (12390 mg/m2)): PD and SD
RECIST1.1 response after chemotherapy ([2]; individual patients, cohort 7, 12390 mg/m2): SD
RECIST1.1 response after ITPP ([2]; individual patients, cohort 8 (14500 mg/m2)): PD and SD
RECIST1.1 response after chemotherapy ([2]; individual patients, cohort 8, 14500 mg/m2): PD and SD
Lesion1_chemo_DM ([2]; individual patients, lesion 1, after subsequent chemotherapy): 131 and 16 and 90 and 54 and 20 and 33 and 23 and 19 and 28 and 67 and 69 and 42 and 31.4 and 10 and 36
Lesion1_post_DM ([2]; individual patients, lesion 1, post ITPP): 113 and 27 and 110 and 305 and 107 and 74 and 26 and 50 and 49 and 25 and 20 and 30 and 70 and 58 and 81 and 43 and 44.6 and 33 and 17 and 12 and 42 and 164
Lesion1_pre_DM ([2]; individual patients, lesion 1, pre ITPP (baseline)): 114 and 27 and 111 and 293 and 106 and 73 and 22 and 26 and 48 and 43 and 49 and 17 and 20 and 21 and 24 and 71 and 50 and 82 and 59 and 43.7 and 32 and 13 and 10 and 38 and 163
Lesion2_chemo_DM ([2]; individual patients, lesion 2, after subsequent chemotherapy): 13 and 23 and 41 and 24 and 25 and 32 and 16 and 12 and 62 and 14 and 47 and 28.9 and 10 and 30 and 40
Lesion2_post_DM ([2]; individual patients, lesion 2, post ITPP): 18 and 26 and 56 and 15 and 17 and 58 and 21 and 25 and 12 and 28 and 14 and 49 and 42 and 39.6 and 16 and 31 and 50 and 13
Lesion2_pre_DM ([2]; individual patients, lesion 2, pre ITPP (baseline)): 17 and 57 and 83 and 13 and 15 and 53 and 26 and 10 and 104 and 24 and 14 and 41 and 25 and 29.7 and 16 and 46
Lesion3_chemo_DM ([2]; individual patients, lesion 3, after subsequent chemotherapy): 39 and 16 and 10 and 9 and 24 and 7 and 32.6 and 8 and 28
Lesion3_post_DM ([2]; individual patients, lesion 3, post ITPP): 32 and 23 and 21 and 10 and 26 and 16 and 45.1 and 30 and 14
Lesion3_pre_DM ([2]; individual patients, lesion 3, pre ITPP (baseline)): 30 and 18 and 20 and 10 and 13 and 66 and 26.6 and 31 and 12
Lesion4_chemo_DM ([2]; individual patients, lesion 4, after subsequent chemotherapy): 21 and 7 and 10 and 12 and 34
Lesion4_post_DM ([2]; individual patients, lesion 4, post ITPP): 17 and 23 and 10 and 15 and 44
Lesion4_pre_DM ([2]; individual patients, lesion 4, pre ITPP (baseline)): 21 and 20 and 10 and 22 and 14 and 38
Lesion5_chemo_DM ([2]; individual patients, lesion 5, after subsequent chemotherapy): 10 and 18 and 9 and 11
Lesion5_post_DM ([2]; individual patients, lesion 5, post ITPP): 16 and 18 and 12
Lesion5_pre_DM ([2]; individual patients, lesion 5, pre ITPP (baseline)): 21 and 15 and 13 and 11 and 14
RespITPP_Recist ([2]; individual patients, morphological response after ITPP monotherapy): PD and SD
RespChemo_Recist ([2]; individual patients, morphological response after subsequent chemotherapy following ITPP): PD and SD and PR
NewLesion_ITPP ([2]; individual patients, new lesion after ITPP monotherapy (Yes/No)): Yes and No
NewLesion_Chemo ([2]; individual patients, new lesion after subsequent chemotherapy following ITPP (Yes/No)): Yes and No
RespITPP_Recist ([2]; response after ITPP, per individual patient, cohort c1, tumor c2): PD and SD
RespChemo_Recist ([2]; response after chemotherapy following ITPP, per individual patient, cohort c1, tumor c2): PD and SD and PR
Rats alive after 100 days (hepatocellular carcinoma): nine out of ten
Survival ([3]; FOLFOX combined with ITPP, 10 days, five times each on alternate days): 153 days
Survival ([3]; FOLFOX given following ITPP treatment): 152 days
Survival ([3]; ITPP alone): 65.5 days
Extension of survival ([3]; syngeneic mouse model of colorectal liver metastasis, 17 (supplementary references)): 60%

Reference: paper PMC8217170, “Phase Ib dose-escalation study of the hypoxia-modifier Myo-inositol trispyrophosphate in patients with hepatopancreatobiliary tumors” (Nature Communications, 2021)
